Experimental data published in EP4722228A1, “NEW COMPOUND TARGETING MUSK AND USE THEREOF” (The University of Tokyo, priority 2023, dated 2024).
Bridge positions count the residues as written; N and C are the ends. Square brackets hold non-standard residues; d marks the D form. Peptide text beside a SMILES is read from it. I, II: the chains in the order shown. * marks the point of attachment. Palmitoyl = CCCCCCCCCCCCCCCC(=O)*; PEG3 = NCCOCCOCCOCCC(=O)O; Dap = NC[C@H](N)C(=O)O

Molecular target: T1, human MuSK (Homo sapiens, UniProt O15146)
T1 construct: fused downstream of the extracellular portion (amino acids 1-493) of human MuSK cDNA clone; made in house; host or cells: Expi293 cells; unpurified culture supernatant used
T1 sequence (O15146 24-493) 1: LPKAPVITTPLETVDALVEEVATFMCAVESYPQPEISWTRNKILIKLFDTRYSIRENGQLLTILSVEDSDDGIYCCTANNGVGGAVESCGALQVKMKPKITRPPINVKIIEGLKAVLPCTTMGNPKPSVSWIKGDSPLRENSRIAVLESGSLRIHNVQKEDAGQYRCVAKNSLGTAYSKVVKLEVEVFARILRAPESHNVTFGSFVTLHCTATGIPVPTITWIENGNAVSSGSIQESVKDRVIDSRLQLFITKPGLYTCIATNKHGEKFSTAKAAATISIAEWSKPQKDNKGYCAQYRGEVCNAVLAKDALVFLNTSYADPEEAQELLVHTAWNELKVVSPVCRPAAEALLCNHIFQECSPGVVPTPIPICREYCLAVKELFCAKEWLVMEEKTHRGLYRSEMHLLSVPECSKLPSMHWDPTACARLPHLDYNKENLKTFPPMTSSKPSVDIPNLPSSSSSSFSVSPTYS
T1 sequence (O15146 24-493) 2: T1 sequence (O15146 24-493) 1
Assay: MuSK dimerization activity (NanoBiT assay)
Type: biochemical
Experimental: Expi293 cells were purchased from Thermo Fisher Scientific Inc. and used. For subculture, DMEM (high glucose, GlutaMAX supplement, pyruvate; GIBCO) supplemented with 10% fetal bovine serum (FBS; GIBCO) was used. For passage, after the culture medium was removed by suction, adherent cells were washed with phosphate buffered saline (PBS(-)), and HBSS (GIBCO) containing no Mg^2+ and Ca^2+ and containing 0.25% trypsin and 1 mM ethylenediaminetetraacetic acid was added, and the mixture was reacted in a CO2 incubator (37°C, 5% CO2) for 5 minutes. The detached cells were collected and then centrifuged at 1000 rpm at 4°C for 5 minutes (Sorvall X4R Pro, Thermo Fisher Scientific Inc.). After the supernatant was removed by suction, the cells were suspended in fresh culture medium and expanded in a new culture vessel.
In the steady state, their affinity is estimated to be about 190 µM, and the amount of luminescence is very small even in the presence of substrate. […] A technique for evaluating interactions between two arbitrary proteins by utilizing this property is the NanoBiT assay. […]
The effect of the U-bodies and their complexes on clustering of acetylcholine receptors was evaluated. […]

MuSK dimerization (compound concentration exceeded 40 nM): conversely tended to decrease
luminescence (MuSK dimerization) (concentration range from the pM order to 40 nM): increased in a dose-dependent manner
SMILES: CCCCCCCCCCCCCCCC(=O)NCCCC[C@H](NC(=O)[C@H](CNC(=O)CCOCCOCCOCCNC(=O)CNC(=O)[C@@H]1CSCC(=O)N[C@H](Cc2ccc(O)cc2)C(=O)N2CCC[C@H]2C(=O)N[C@@H](CO)C(=O)N[C@@H](Cc2ccc(O)cc2)C(=O)N[C@@H](Cc2c[nH]cn2)C(=O)N[C@@H]([C@@H](C)O)C(=O)N[C@@H](CC(N)=O)C(=O)N[C@@H](C(C)C)C(=O)N[C@@H](C(C)C)C(=O)N[C@@H](C)C(=O)N[C@@H](CO)C(=O)N[C@@H](CC(C)C)C(=O)N[C@@H](CCCCN)C(=O)N[C@@H](CCCNC(=N)N)C(=O)N1)NC(=O)CCOCCOCCOCCNC(=O)CNC(=O)[C@@H]1CSCC(=O)N[C@H](Cc2ccc(O)cc2)C(=O)N2CCC[C@H]2C(=O)N[C@@H](CO)C(=O)N[C@@H](Cc2ccc(O)cc2)C(=O)N[C@@H](Cc2c[nH]cn2)C(=O)N[C@@H]([C@@H](C)O)C(=O)N[C@@H](CC(N)=O)C(=O)N[C@@H](C(C)C)C(=O)N[C@@H](C(C)C)C(=O)N[C@@H](C)C(=O)N[C@@H](CO)C(=O)N[C@@H](CC(C)C)C(=O)N[C@@H](CCCCN)C(=O)N[C@@H](CCCNC(=N)N)C(=O)N1)C(N)=O [MuSK7-pal] (I: {CH2CO}-[dY]PSYHTNVVASLKRCG[PEG3][Dap]K(Palmitoyl)-NH2 / II: {CH2CO}-[dY]PSYHTNVVASLKRCG[PEG3]; amide I:18-II:C; thioether I:N-I:15, II:N-II:15)
